Tested on: 855422-203-R-J1-PDC complex spheroid growth
Experiment: Anticancer human tumor 855422-203-R-J1-PDC patient-derived bladder carcinoma cell line growth inhibition [AhR]
Conditions: for IC50: curve of first compound; for viability, T/C: stronger effect = lower value
How it was run: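 Spheroids combined tumor cells with HUVEC endothelial cells and human MSCs as stroma. AhR antagonists were paired with standard or investigational drugs, each dosed in half-log steps down from near clinical Cmax, or from 10 microM where Cmax was unknown.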

[1] = second compound 0.1 µM, first compound 0.0316 µM
[2] = second compound 0.1 µM, first compound 0.1 µM
[3] = second compound 0.1 µM, first compound 0.316 µM
[4] = second compound 0.1 µM, first compound 1 µM
[5] = second compound 0.1 µM, first compound 3.16 µM
[6] = second compound 0.1 µM, first compound 10 µM
[7] = second compound 0.316 µM, first compound 0.0316 µM
[8] = second compound 0.316 µM, first compound 0.1 µM
[9] = second compound 0.316 µM, first compound 0.316 µM
[10] = second compound 0.316 µM, first compound 1 µM
[11] = second compound 0.316 µM, first compound 3.16 µM
[12] = second compound 0.316 µM, first compound 10 µM
[13] = second compound 1 µM, first compound 0.0316 µM
[14] = second compound 1 µM, first compound 0.1 µM
[15] = second compound 1 µM, first compound 0.316 µM
[16] = second compound 1 µM, first compound 1 µM
[17] = second compound 1 µM, first compound 3.16 µM
[18] = second compound 1 µM, first compound 10 µM
[19] = second compound 3.16 µM, first compound 0.0316 µM
[20] = second compound 3.16 µM, first compound 0.1 µM
[21] = second compound 3.16 µM, first compound 0.316 µM
[22] = second compound 3.16 µM, first compound 1 µM
[23] = second compound 3.16 µM, first compound 3.16 µM
[24] = second compound 3.16 µM, first compound 10 µM
[25] = second compound 10 µM, first compound 0.0316 µM
[26] = second compound 10 µM, first compound 0.1 µM
[27] = second compound 10 µM, first compound 0.316 µM
[28] = second compound 10 µM, first compound 1 µM
[29] = second compound 10 µM, first compound 3.16 µM
[30] = second compound 10 µM, first compound 10 µM
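Further: spheroids exposed to agents for seven days before readout.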
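Wherever viability, T/C is given: percent of DMSO vehicle control luminescence viability.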

In the case of `CC(C)CC(NC(=O)C(Cc1ccccc1)NC(=O)c1cnccn1)B(O)O` (stereo not given) + Cc1cncc(-c2nc(NCCc3c[nH]c4ccccc34)c3ncn(C(C)C)c3n2)c1, the IC50 (second compound 0.1 µM) is reported as 2.14 nM, the IC50 (second compound 0.316 µM) is reported as 2.02 nM and the IC50 (second compound 1 µM) is reported as 1.68 nM. For the same compound, the IC50 (second compound 3.16 µM) was 1.29 nM, the IC50 (second compound 10 µM) was under 0.949 nM and the viability, T/C (second compound 0.1 µM, first compound 0.000949 µM) was 93%. For the same compound, the viability, T/C (second compound 0.1 µM, first compound 0.003 µM) was 32.3%, the viability, T/C (second compound 0.1 µM, first compound 0.00949 µM) was 1.54% and the viability, T/C (second compound 0.1 µM, first compound 0.03 µM) was 0.03%. For the same compound, the viability, T/C (second compound 0.1 µM, first compound 0.0949 µM) was 0.02%, the viability, T/C (second compound 0.1 µM, first compound 0.3 µM) was 0.1% and the viability, T/C (second compound 0.316 µM, first compound 0.000949 µM) was 103%. The viability, T/C (second compound 0.316 µM, first compound 0.003 µM) was 22.5%, the viability, T/C (second compound 0.316 µM, first compound 0.00949 µM) was 2.79% and the viability, T/C (second compound 0.316 µM, first compound 0.03 µM) was 0.01%. It also gave a viability, T/C (second compound 0.316 µM, first compound 0.0949 µM) of 0.01%, a viability, T/C (second compound 0.316 µM, first compound 0.3 µM) of 0.09% and a viability, T/C (second compound 1 µM, first compound 0.000949 µM) of 90.6%. For the same compound, the viability, T/C (second compound 1 µM, first compound 0.003 µM) was 9.23%, the viability, T/C (second compound 1 µM, first compound 0.00949 µM) was 1.41% and the viability, T/C (second compound 1 µM, first compound 0.03 µM) was 0.02%. The viability, T/C (second compound 1 µM, first compound 0.0949 µM) was 0.03%, the viability, T/C (second compound 1 µM, first compound 0.3 µM) was 1.34% and the viability, T/C (second compound 3.16 µM, first compound 0.000949 µM) was 66.5%. The viability, T/C (second compound 3.16 µM, first compound 0.003 µM) was 4.56%, the viability, T/C (second compound 3.16 µM, first compound 0.00949 µM) was 0.97% and the viability, T/C (second compound 3.16 µM, first compound 0.03 µM) was 2.11%. The viability, T/C (second compound 3.16 µM, first compound 0.0949 µM) was 0.02%, the viability, T/C (second compound 3.16 µM, first compound 0.3 µM) was 0.68% and the viability, T/C (second compound 10 µM, first compound 0.000949 µM) was 4.11%. For the same compound, the viability, T/C (second compound 10 µM, first compound 0.003 µM) was 0.69%, the viability, T/C (second compound 10 µM, first compound 0.00949 µM) was 0.08% and the viability, T/C (second compound 10 µM, first compound 0.03 µM) was 1.49%. It also gave a viability, T/C (second compound 10 µM, first compound 0.0949 µM) of 0.1% and a viability, T/C (second compound 10 µM, first compound 0.3 µM) of 0.73%.

Work on `COc1cc(Nc2ncc3c(n2)-c2ccc(Cl)cc2C(c2c(F)cccc2OC)=NC3)ccc1C(=O)O` + Cc1cncc(-c2nc(NCCc3c[nH]c4ccccc34)c3ncn(C(C)C)c3n2)c1 yielded an IC50 (second compound 0.1 µM) of over 10000 nM, an IC50 (second compound 0.316 µM) of over 10000 nM and an IC50 (second compound 1 µM) of 987 nM. For the same compound, the IC50 (second compound 3.16 µM) was 995 nM, the IC50 (second compound 10 µM) was under 31.6 nM and the viability, T/C [1] was 104%. For the same compound, the viability, T/C [2] was 101%, the viability, T/C [3] was 61.5% and the viability, T/C [4] was 55%. It also gave a viability, T/C [5] of 50.6%, a viability, T/C [6] of 45.4% and a viability, T/C [7] of 98.7%. For the same compound, the viability, T/C [8] was 94.8%, the viability, T/C [9] was 61.4% and the viability, T/C [10] was 52.4%. The viability, T/C [11] was 52.5%, the viability, T/C [12] was 50.7% and the viability, T/C [13] was 99%. For the same compound, the viability, T/C [14] was 90.5%, the viability, T/C [15] was 63.2% and the viability, T/C [16] was 49.3%. The viability, T/C [17] was 48.6%, the viability, T/C [18] was 48.2% and the viability, T/C [19] was 82.8%. The viability, T/C [20] was 75.9%, the viability, T/C [21] was 59.7% and the viability, T/C [22] was 48.6%. For the same compound, the viability, T/C [23] was 52.2%, the viability, T/C [24] was 44.8% and the viability, T/C [25] was 27.9%. For the same compound, the viability, T/C [26] was 26.7%, the viability, T/C [27] was 14.8% and the viability, T/C [28] was 11.4%. It also gave a viability, T/C [29] of 22.5% and a viability, T/C [30] of 26.4%.

`Cn1ncnc1C1c2n[nH]c(=O)c3cc(F)cc(c23)NC1c1ccc(F)cc1` (stereo not given) + Cc1cncc(-c2nc(NCCc3c[nH]c4ccccc34)c3ncn(C(C)C)c3n2)c1 showed an IC50 (second compound 0.1 µM) of over 100 nM, an IC50 (second compound 0.316 µM) of over 100 nM and an IC50 (second compound 1 µM) of over 100 nM. It also gave an IC50 (second compound 3.16 µM) of over 100 nM, an IC50 (second compound 10 µM) of under 0.316 nM and a viability, T/C (second compound 0.1 µM, first compound 0.000316 µM) of 84.1%. The viability, T/C (second compound 0.1 µM, first compound 0.001 µM) was 85.3%, the viability, T/C (second compound 0.1 µM, first compound 0.00316 µM) was 87.6% and the viability, T/C (second compound 0.1 µM, first compound 0.01 µM) was 95.9%. For the same compound, the viability, T/C [1] was 87.8%, the viability, T/C [2] was 88.2% and the viability, T/C (second compound 0.316 µM, first compound 0.000316 µM) was 91.7%. The viability, T/C (second compound 0.316 µM, first compound 0.001 µM) was 80.8%, the viability, T/C (second compound 0.316 µM, first compound 0.00316 µM) was 73.1% and the viability, T/C (second compound 0.316 µM, first compound 0.01 µM) was 88.5%. For the same compound, the viability, T/C [7] was 90.3%, the viability, T/C [8] was 81.6% and the viability, T/C (second compound 1 µM, first compound 0.000316 µM) was 81.3%. It also gave a viability, T/C (second compound 1 µM, first compound 0.001 µM) of 86.2%, a viability, T/C (second compound 1 µM, first compound 0.00316 µM) of 76.4% and a viability, T/C (second compound 1 µM, first compound 0.01 µM) of 78.3%. It also gave a viability, T/C [13] of 77.2%, a viability, T/C [14] of 84% and a viability, T/C (second compound 3.16 µM, first compound 0.000316 µM) of 67.6%. The viability, T/C (second compound 3.16 µM, first compound 0.001 µM) was 74.4%, the viability, T/C (second compound 3.16 µM, first compound 0.00316 µM) was 71.4% and the viability, T/C (second compound 3.16 µM, first compound 0.01 µM) was 56.6%. For the same compound, the viability, T/C [19] was 76.9%, the viability, T/C [20] was 75.2% and the viability, T/C (second compound 10 µM, first compound 0.000316 µM) was 30.7%. For the same compound, the viability, T/C (second compound 10 µM, first compound 0.001 µM) was 29.6%, the viability, T/C (second compound 10 µM, first compound 0.00316 µM) was 21.5% and the viability, T/C (second compound 10 µM, first compound 0.01 µM) was 5.12%. The viability, T/C [25] was 23.6% and the viability, T/C [26] was 26.1%.

For `NS(=O)(=O)OCC1CC(n2ccc3c(NC4CCc5ccccc54)ncnc32)CC1O` (stereo not given) + Cc1cncc(-c2nc(NCCc3c[nH]c4ccccc34)c3ncn(C(C)C)c3n2)c1, the IC50 (second compound 0.1 µM) was 860 nM, the IC50 (second compound 0.316 µM) was 647 nM and the IC50 (second compound 1 µM) was 499 nM. The IC50 (second compound 3.16 µM) was 216 nM, the IC50 (second compound 10 µM) was under 31.6 nM and the viability, T/C [1] was 114%. It also gave a viability, T/C [2] of 119%, a viability, T/C [3] of 78.2% and a viability, T/C [4] of 50.4%. For the same compound, the viability, T/C [5] was 12.8%, the viability, T/C [6] was 10.9% and the viability, T/C [7] was 96.5%. The viability, T/C [8] was 113%, the viability, T/C [9] was 52.1% and the viability, T/C [10] was 50.9%. It also gave a viability, T/C [11] of 10.8%, a viability, T/C [12] of 9.91% and a viability, T/C [13] of 98.3%. The viability, T/C [14] was 106%, the viability, T/C [15] was 50.7% and the viability, T/C [16] was 40.3%. For the same compound, the viability, T/C [17] was 11.7%, the viability, T/C [18] was 9.3% and the viability, T/C [19] was 80.2%. The viability, T/C [20] was 75.9%, the viability, T/C [21] was 37.1% and the viability, T/C [22] was 12.5%. It also gave a viability, T/C [23] of 8.33%, a viability, T/C [24] of 8.5% and a viability, T/C [25] of 9.89%. The viability, T/C [26] was 4.7%, the viability, T/C [27] was 3.03% and the viability, T/C [28] was 0.63%. The viability, T/C [29] was 1.67% and the viability, T/C [30] was 1.45%.

Compound `O=C(C=Cc1cccc(S(=O)(=O)Nc2ccccc2)c1)NO` + Cc1cncc(-c2nc(NCCc3c[nH]c4ccccc34)c3ncn(C(C)C)c3n2)c1 has an IC50 (second compound 0.1 µM) of 1480 nM, an IC50 (second compound 0.316 µM) of 1390 nM and an IC50 (second compound 1 µM) of 1140 nM. The IC50 (second compound 3.16 µM) was 494 nM, the IC50 (second compound 10 µM) was under 31.6 nM and the viability, T/C [1] was 81.7%. It also gave a viability, T/C [2] of 86.4%, a viability, T/C [3] of 85.2% and a viability, T/C [4] of 62.5%. It also gave a viability, T/C [5] of 23.9%, a viability, T/C [6] of 0.91% and a viability, T/C [7] of 84.8%. The viability, T/C [8] was 82.9%, the viability, T/C [9] was 81.5% and the viability, T/C [10] was 59.9%. It also gave a viability, T/C [11] of 23.5%, a viability, T/C [12] of 0.69% and a viability, T/C [13] of 82.6%. The viability, T/C [14] was 84.4%, the viability, T/C [15] was 72% and the viability, T/C [16] was 53.3%. It also gave a viability, T/C [17] of 23.9%, a viability, T/C [18] of 0.75% and a viability, T/C [19] of 73.5%. For the same compound, the viability, T/C [20] was 82.4%, the viability, T/C [21] was 66% and the viability, T/C [22] was 23.5%. The viability, T/C [23] was 12.2%, the viability, T/C [24] was 0.58% and the viability, T/C [25] was 29.9%. The viability, T/C [26] was 36.2%, the viability, T/C [27] was 8.93% and the viability, T/C [28] was 3.43%. For the same compound, the viability, T/C [29] was 1.25% and the viability, T/C [30] was 0.31%.

Source: PubChem BioAssay AID1919005 (Molecular Pharmacology Branch, DTP, NCI, 2023)
